One series relates to HT29 cell line. The experiment in a line: BrdU cell growth inhibition, HT29. The following applies: Homo sapiens; for GI50: HT-29, HT29 (Colon) cells, read-out: GI50; for activity at 0.05 µM / activity at 0.5 µM / activity at 5 µM: HT-29, read-out: HT-29 Growth, % of Control Mean, n = 3; for activity at 0.05 µM: 50 nM; for activity at 0.5 µM: 500 nM. It counts as cell-based, human. The essentials: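 HT29 colon carcinoma cells treated with compounds diluted from 20 mM DMSO stocks into DMEM/10% FBS. Proliferation read as colorimetric BrdU incorporation ELISA; GI calculated relative to untreated cells at time 0 and control cells at day n, with GI50 extrapolated. Net cell loss below time-0 level scored as cytotoxicity.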

Another series concerns c-Src 3T3 cells. In words: BrdU cell growth inhibition, c-Src 3T3. The class given is cell-based, mouse. The conditions noted are these: Mus musculus; for activity at 0.1 µM / activity at 1 µM / activity at 10 µM: NIH3T3, read-out: c-Src 3T3 Growth, % of Control Mean, n = 3; for activity at 0.1 µM: 100 nM; for GI50: c-Src 3T3 (c-Src527F/NIH3T3) cells, read-out: GI50. In outline: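 c-Src 3T3 cells on poly-D-lysine plates in DMEM with 2% FBS, L-glutamine, pyruvate and 10 mM HEPES. Compounds came from 20 mM DMSO stocks diluted in DMEM/10% FBS. Proliferation was read by colorimetric BrdU-incorporation ELISA, and GI50 was extrapolated from growth relative to time-zero and untreated controls.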

For series [1], the system named is colon tumor cell line KM 12. In words: tumor growth inhibition, KM12. The following applies: Homo sapiens; KM12 cells. It counts as cell-based. The procedure:
(§1) These GI50's were determined using the standard tumor growth inhibition assays, similar to that described in detail for the HT29 cell line above, and the following cell lines: colon tumor cell lines KM 12, lung cancer cell line H460 and lung cancer cell line A549 (all are NCI standard tumor cell lines).

Series [2] relates to lung cancer cell line H460. The experiment in a line: tumor growth inhibition, H460. The class given is cell-based. The following applies: Homo sapiens, NCI-H460; H460 cells. Here is the method:
as §1

Series [3] concerns lung cancer cell line A549. In words: tumor growth inhibition, A549. The class given is cell-based, Human. The conditions noted are these: Homo sapiens. The source says: Growth Inhibition. […] T1 values≤T0 values were designated as T, cytotoxicity.
A further series deals with HuH7. In words: MTT growth inhibition, HuH7. The conditions noted are these: HuH7, 8.0×10^3 cells/wells, […] FBS @ 78 Hr. It counts as cell-based, human. Here is the method:
(§2) Samples of the test compounds were formulated in 100% DMSO to obtain 20 mM stock solutions; stored @ 4° C. The IC50s and IC80s were determined as described below. Huh7, WRL-68, PLC/PRF/5, Hep 3B, and Hep G2 human cancer lines were routinely cultured and maintained in a basal medium containing 2% FBS @ 37° C., 5% CO2. […] The assay medium was basal medium/1.5% FBS. Cells were cultured overnight in 96-well plates at 37° C., 5% CO2 prior to KX2-391. MSA and Dasatinib addition. […] 10 μL of 20× dilutions were added to the appropriate wells (n=3) containing 190 μL cancer cell line; 6561 nM to 0.012 nM range of final concentrations. Vehicle control contained cells, no sample. Medium control contained cells, no sample, 0.03% DMSO (highest DMSO concentration present in samples). […] On day 3, 10 μL MTT (5 mg/mL) were added to each well. Cells were incubated in the presence of MTT for 4 hours @ 37° C., 5% CO2. […] Cells were then incubated overnight @ 37°, 5% CO2. OD570 measurements were taken using BioTek Synergy HT multiplatform microplate reader. Growth inhibition curves IC50s and IC80s were determined using GraphPad Prism 5 statistical software.

Another series has as its system WRL-68. The experiment in a line: MTT growth inhibition, WRL-68. It counts as cell-based, human. The conditions noted are these: WRL-68, 8.0×10^3 cells/wells, […] FBS @ 78 Hr. Here is the method: (§3) Samples of the test compounds were formulated in 100% DMSO to obtain 20 mM stock solutions; stored @ 4° C. The IC50s and IC80s were determined as described below. Huh7, WRL-68, PLC/PRF/5, Hep 3B, and Hep G2 human cancer lines were routinely cultured and maintained in a basal medium containing 2% FBS @ 37° C., 5% CO2. […] Vehicle control contained cells, no sample. Medium control contained cells, no sample, 0.03% DMSO (highest DMSO concentration present in samples). […] On day 3, 10 μL MTT (5 mg/mL) were added to each well. Cells were incubated in the presence of MTT for 4 hours @ 37° C., 5% CO2. […] Cells were then incubated overnight @ 37°, 5% CO2. OD570 measurements were taken using BioTek Synergy HT multiplatform microplate reader. Growth inhibition curves IC50s and IC80s were determined using GraphPad Prism 5 statistical software.

In the next series the test system is PLC/PRF/5. The experiment in a line: MTT growth inhibition, PLC/PRF/5. The class given is cell-based, human. The following applies: PLC/PRF/5, 8.0×10^3 cells/wells, […] FBS @ 78 Hr. Here is the method: as §3
For another series, the system named is Hep 3B. The experiment in a line: MTT growth inhibition, Hep 3B. The class given is cell-based, human. The following applies: Hep 3B, 8.0×10^3 cells/wells, […] FBS @ 78 Hr. Here is the method:
as §3

For another series, the system named is Hep G2. In words: MTT growth inhibition, Hep G2. It counts as cell-based, human. The conditions noted are these: Hep G2, 8.0×10^3 cells/wells, […] FBS @ 78 Hr. The procedure:
as §2

The test system of the next series is 769-P. The experiment in a line: renal tumor cell growth inhibition, 769-P. The class given is cell-based, Human. The conditions noted are these: Homo sapiens. The procedure:
(§4) These GI50s were determined using standard tumor growth inhibition assays, similar to those described in detail in this Example 7.

In a further series the test system is 786-O. In words: renal tumor cell growth inhibition, 786-O. The class given is cell-based, Human. The following applies: Homo sapiens, 786-0, renal cell adenocarcinoma. The procedure:
as §4

For a further series, the system named is Caki-2. The experiment in a line: renal tumor cell growth inhibition, Caki-2. It counts as cell-based, Human. The conditions noted are these: Homo sapiens; Caki-2, clear cell carcinoma. The procedure:
as §4

The test system of a further series is ACHN. In words: renal tumor cell growth inhibition, ACHN. The conditions noted are these: Homo sapiens, renal cell adenocarcinoma. It counts as cell-based, Human. Here is the method: as §4
Series [4] deals with wild-type aywl strain of HBV. In words: HBV primary assay (HepG2-2.2.15 antiviral assay). It counts as cell-based. The conditions noted are these: Test Concentration 10 μM. The procedure:
The HBV primary assay developed was conducted similarly to that described by Korba et al., (Antiviral Res. 15: 217-228 (1991) and Antiviral Res. 19: 55-70 (1992)) with the exception that viral DNA detection and quantification have been improved and simplified (Korba et al., Antiviral Res. 19: 55-70 (1992)).
Compound 38 (KX2-377), Compound 136 (KX2-393), and Compound 137 (KX2-394) were evaluated for potential anti-HBV activity using a single high-test concentration of compounds in the standardized HepG2-2.2.15 antiviral assay. The HepG2-2.2.15 is a stable cell line producing high levels of the wild-type aywl strain of HBV. Briefly, HepG2-2.2.15 cells were plated in 96-well plates. Only the interior wells were utilized to reduce “edge effects” observed during cell culture; the exterior wells are filled with complete medium to help minimize sample evaporation. On the following day, the confluent monolayer of HepG2-2.2.15 cells was washed and the medium is replaced with complete medium containing test concentrations of a test article in triplicate. 3TC was used as the positive control, while media alone was added to cells as the untreated control. Three days later the culture medium was replaced with fresh medium containing the appropriately diluted drug. Six days following the initial administration of the test compound, the cell culture supernatant was collected, treated with pronase and DNAse and then used in a real-time quantitative TaqMan PCR assay for direct measurement of HBV DNA copies using an ABI Prism 7900 sequence detection system (Applied Biosystems, Foster City, Calif.).
(§5) The antiviral activity of each test compound was calculated by comparing its HBV DNA copies against that of the untreated control cells (100%) to derive percent inhibition level. After removing the supernatant, the remaining cells were subject to CellTiter 96 Aqueous One (Promega, Madison, Wis.) solution cell proliferation assay (MTS-based) to measure cell viability. Cytotoxicity of the compound was determined by comparing its cell viability with that of the untreated cell control to derive percentage of the cell control.

Another series deals with HepG2-2.2.15 cells. The experiment in a line: cytotoxicity in HBV primary assay (MTS). The class given is cell-based. The following applies: Test Concentration 10 μM. Here is the method:
as §5

The nature of series [5]: noise-induced hearing loss. The class given is in vivo, Chinchillas. The following applies: chinchilla ears treated on round window, 4 kHz band noise 105 dB SPL 4 h, days 1, 7, 21; relative to control ears. The procedure:
Chinchillas (N=6) were used in studies of noise-induced hearing loss. The animals' hearing sensitivity was measured using standard electrophysical techniques before the experimental manipulation. […] Animals were anesthetized, the auditory bullae were opened, and the left and right cochleas were visualized. The round window leading to the scala tympani of the cochlea was used as the access point for drug application. Animals were treated with KX1-004, KX1-141, KX1-329 or KX2-328 (a non-ATP competitive inhibitor from AstraZeneca, KX2-238), emulsified in DMSO, in 1000 mM of saline solution, which was placed on the round window of one ear. KX1-004:
A control solution of 3 mM DMSO in 1000 mM of saline solution was placed on the round window of the other ear. The solution was allowed to set on the round window for 30 minutes, then the auditory bullae were closed. […] Following the noise exposure, the animals' hearing was tested at day 1, day 7, and day 21 to determine evoked potential threshold shifts. Permanent threshold shift was assessed at day 21.
FIGS. 10-12 show the average threshold shifts for animals treated with KX1-004, KX1-141, KX1-329 or KX2-328.

Series [6] in a line: cisplatin-induced hearing loss. The class given is in vivo. The following applies: guinea pigs, subcutaneous treatment prior to cisplatin. The procedure: The effects of high level noise and ototoxic drugs, such as cisplatin or the class of aminoglycosides, share several common features in the inner ear. First, the noise and/or drugs alter the free radical/antioxidant levels in the cochlea (inner ear). […] Guinea pigs (N=7) were used in studies of cisplatin-induced hearing loss. The animals' hearing sensitivity was measured using standard electrophysical techniques before the experimental manipulation. […] Animals were anesthetized and treated with cisplatin. Subsequently, the animals' hearing was tested to determine evoked potential threshold shifts.
KX1 is CH65. Animals were treated subcutaneously with KX1-004 prior to the cisplatin-induced hearing loss.

Some results are limits rather than exact numbers.

Usually GI50 stands for the concentration that inhibits growth by half. For orientation: melting point means the temperature, or range, at which the solid turns liquid. The molecule `O=C(Cc1ccc(-c2ccccc2)cc1)NCc1cccc(O)c1` [KX1-136, N(3-hydroxy-benzyl)-4-biphenylacetamide] came in with a melting point of 169 to 170 °C. In the series on HT29 cell line, the 50% growth inhibitory concentration (GI50) came to 484 nM, the activity at 0.05 µM is 83.1%, the activity at 0.5 µM was less than 0% and the activity at 5 µM was less than 0%. Moreover, in the series on c-Src 3T3 cells, the activity at 0.1 µM stood at 46.3%, the activity at 1 µM is less than 0%, the activity at 10 µM was less than 0% and the GI50 stood at 53 nM. The molecule further returned a GI50 in [1] of 105 nM. The molecule further registered a GI50 in [2] of 280 nM. Halving of growth in [3] (A549 (Lung) cells) (GI50) required 330 nM.

Turning to `O=C(Cc1ccc(-c2ccccc2)cc1)NCc1cccc(F)c1` [KX1-305, N(3-fluoro-benzyl)-4-biphenylacetamide], the melting point is 170 to 172 °C. Besides, in the series with HT29 cell line, the GI50 was 877 nM, the activity at 0.05 µM amounted to 108%, the activity at 0.5 µM was less than 0% and the activity at 5 µM was less than 0%. In the series on c-Src 3T3 cells, the activity at 0.1 µM is 35%, the activity at 1 µM was less than 0%, the activity at 10 µM is less than 0% and the concentration for 50% growth inhibition (GI50) turned out to be 349 nM. Moreover, it took 410 nM to inhibit growth in series [1] by half (GI50). Further, growth in series [2] was halved (GI50) at 890 nM. The molecule further gave a concentration for 50% growth inhibition (GI50) in [3] (A549 cells) of 1030 nM.

The term IC50 denotes the point on the concentration scale where inhibition reaches its midpoint. The term IC80 denotes the concentration needed for an effect of 80%. Turning to `O=C(Cc1ccc(-c2ccc(OCCN3CCOCC3)cc2)cn1)NCc1ccccc1` [KX2-391-MSA], the concentration for half-maximal inhibition (IC50) in the series on HuH7 came to 9 nM; in the series on WRL-68 it was 15 nM; in the series with PLC/PRF/5, 13 nM; in the series with Hep 3B, 26 nM; with Hep G2 it was 60 nM. Besides, the concentration for an effect of 80% (IC80) is 23 nM in the series on HuH7; 25 nM in the series with WRL-68; 24 nM in the series with PLC/PRF/5; 88 nM in the series on Hep 3B; 3.66 µM in the series with Hep G2.

Regarding `CN1CCN(CCOc2ccc(-c3ccc(CC(=O)NCc4cccc(F)c4)cc3)c(F)c2)CC1` [KX2-402], the GI50 in the series with 769-P stood at 8.4 nM; in the series with 786-O, 57.7 nM; with Caki-2, 5 nM; in the series on ACHN, 6.9 nM.

With `Cl.Cl.O=C(Cc1ccc(-c2ccc(OCCN3CCOCC3)cc2)cn1)NCc1ccccc1` [KXO1:2HCl], in [4], the “Antiviral Activity Percent inhibition of cell control” value turned out to be 48.2% and the Interpretation entry was “Cytotoxic”. The “Cytotoxicity Percent of cell control” value with HepG2-2.2.15 cells is 51.3%.

In the case of KX1-004, the “average dB threshold shifts” value in series [5] is recorded as “lower”. Besides, in [6], the “protection against cisplatin-induced hearing loss” value is listed as “protected against ciplatin-induced hearing loss”.
